Data on 32 compounds can be found in US9079866B2, “Flap modulators” (JANSSEN PHARMACEUTICA NV, priority 2013, dated 2015).

A word on the Ki: it is a measure of affinity in units of concentration, obtained from inhibition or displacement. One may read the IC50 as the concentration needed to halve the response being measured.

Structures can show the parent of a compound that is named as a salt. Where two headings read alike, the source gives them in different places.

The target of one assay is human FLAP (Homo sapiens (Human), UniProt P20292). The assay is described as follows: FLAP binding assay (HTRF format). A digest of the protocol: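 Binding of compounds to FLAP read out as HTRF ratio. Values are the mean of two assay plates, each sample run in duplicate per plate.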
For assay [1], the system named is leukotriene pathway in human whole blood (LTB4 levels). Briefly: Human whole blood assay (A23187-stimulated LTB4). It is filed as cell-based. Conditions: Homo sapiens, human whole blood diluted 1:1 in RPMI, A23187-stimulated LTB4; read-out: LTB4 IC50 1:1. A digest of the protocol:
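Single-replicate data from at least one healthy donor: compound pre-incubated 15 min at 37° Celsius in 1:1 RPMI-diluted heparinised blood, followed by 30 min calcium ionophore A23187 (7 μg/mL) challenge at 37° Celsius. LTB4 in plasma quantified by kit; IC50 via 4-parameter equation.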

The mark [2] stands for this setting: human FLAP wild type, HTRF format, average of two plates, duplicates.
Setting [3] is: read-out: FLAP Binding wild type HTRF Ki.

Chain of human FLAP (P20292 whole entry): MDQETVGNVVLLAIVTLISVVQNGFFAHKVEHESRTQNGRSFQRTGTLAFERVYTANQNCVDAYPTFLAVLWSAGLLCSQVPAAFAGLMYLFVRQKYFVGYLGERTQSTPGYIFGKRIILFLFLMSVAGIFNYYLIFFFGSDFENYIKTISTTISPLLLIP

The compound `Nc1cnc(-c2ccc(-c3ccccc3S(=O)(=O)C3CC3)cc2F)cn1` [Example 197, 5-[2′-(Cyclopropylsulfonyl)-3-fluorobiphenyl-4-yl]pyrazin-2-amine] came in with a Ki on human FLAP (setting [2]) of 10 nM. Further, the IC50 in assay [1] amounted to 83 nM.

For `CCCCCCS(=O)(=O)c1ccccc1-c1ccc(-c2cnc(N)cn2)c(F)c1` [Example 198, 5-[3-Fluoro-2′-(hexylsulfonyl)biphenyl-4-yl]pyrazin-2-amine], the affinity at human FLAP (setting [2]), expressed as Ki, was 83 nM. For the same compound, the IC50 in assay [1] amounted to 375 nM.

Turning to `CC(C)S(=O)(=O)c1ccccc1-c1ccc(-c2cnc(N)cn2)c(F)c1` [Example 199, 5-{3-Fluoro-2′-[(1-methylethyl)sulfonyl]biphenyl-4-yl}pyrazin-2-amine], the inhibition constant (Ki) on human FLAP (setting [2]) was found to be 39 nM. Moreover, the IC50 in assay [1] came out at 250 nM.

On human FLAP (setting [2]), `NC(=O)CSc1ccccc1-c1ccc(-c2cnc(N)cn2)c(F)c1` [Example 200, 2-{[4′-(5-Aminopyrazin-2-yl)-3′-fluorobiphenyl-2-yl]sulfanyl}acetamide] showed a Ki of 35 nM. Besides, the IC50 in assay [1] turned out to be 176 nM.

The compound `CCN(CC)C(=O)CSc1ccccc1-c1ccc(-c2cnc(N)cn2)c(F)c1` [Example 201, 2-{[4′-(5-Aminopyrazin-2-yl)-3′-fluorobiphenyl-2-yl]sulfanyl}-N,N-diethylacetamide] showed a Ki on human FLAP (setting [2]) of 21 nM. Also, in assay [1], the IC50 was found to be 358 nM.

In turn, `Nc1cnc(-c2ccc(-c3ccccc3SCC(=O)N3CCOCC3)cc2F)cn1` [Example 202, 5-{3-Fluoro-2′-[(2-morpholin-4-yl-2-oxoethyl)sulfanyl]biphenyl-4-yl}pyrazin-2-amine] displayed an inhibition constant Ki on human FLAP (setting [2]) of 72 nM. For the same compound, the IC50 in assay [1] came out at 172 nM.

As to `Nc1cnc(-c2ccc(-c3ccccc3SCCNC(=O)c3ccccc3)cc2F)cn1` [Example 204, N-(2-{[4′-(5-Aminopyrazin-2-yl)-3′-fluorobiphenyl-2-yl]sulfanyl}ethyl)benzamide], the inhibition constant Ki at human FLAP (setting [2]) turned out to be 4 nM. In addition, in assay [1], the IC50 was determined as 128 nM.

With `CS(=O)(=O)c1ccc(CSc2ccccc2-c2ccc(-c3cnc(N)cn3)c(F)c2)cc1` [Example 205, 5-(3-Fluoro-2′-{[4-(methylsulfonyl)benzyl]sulfanyl}biphenyl-4-yl)pyrazin-2-amine], the inhibitory constant (Ki) on human FLAP (setting [2]) is 8 nM. Further, in assay [1], the half-maximal inhibitory concentration (IC50) was 66 nM.

As for `Nc1cnc(-c2ccc(-c3ccc(C(F)(F)F)cc3S(N)(=O)=O)cc2F)cn1` [Example 206, 4′-(5-Aminopyrazin-2-yl)-3′-fluoro-4-(trifluoromethyl)biphenyl-2-sulfonamide], the Ki at human FLAP (setting [2]) stood at 2 nM. Besides, in assay [1], the IC50 amounted to 43 nM.

For the compound `CS(=O)(=O)c1cc(C(F)(F)F)ccc1-c1ccc(-c2cnc(N)cn2)c(F)c1` [Example 207, 5-[3-Fluoro-2′-(methylsulfonyl)-4′-(trifluoromethyl)biphenyl-4-yl]pyrazin-2-amine], on human FLAP (setting [2]), the inhibition constant Ki turned out to be 17 nM. Further, in assay [1], the IC50 turned out to be 205 nM.

`Nc1cnc(-c2ccc(-c3ccc(C(F)(F)F)cc3S(=O)(=O)N3CCNC(=O)C3)cc2F)cn1` [Example 209, 4-{[4′-(5-Aminopyrazin-2-yl)-3′-fluoro-4-(trifluoromethyl)biphenyl-2-yl]sulfonyl}piperazin-2-one] displayed an inhibition constant Ki on human FLAP (setting [2]) of 1 nM. Further, the IC50 in assay [1] is 34 nM.

The compound `CCNS(=O)(=O)c1cc(C(F)(F)F)ccc1-c1ccc(-c2cnc(N)cn2)c(F)c1` [Example 211, 4′-(5-Aminopyrazin-2-yl)-N-ethyl-3′-fluoro-4-(trifluoromethyl)biphenyl-2-sulfonamide] came in with a Ki on human FLAP (setting [2]) of 1 nM. The IC50 in assay [1] was 6 nM.

Consider `CN1CCN(S(=O)(=O)c2cc(C(F)(F)F)ccc2-c2ccc(-c3cnc(N)cn3)c(F)c2)CC1` [Example 212, 5-{3-Fluoro-2′-[(4-methylpiperazin-1-yl)sulfonyl]-4′-(trifluoromethyl)biphenyl-4-yl}pyrazin-2-amine], for which the Ki at human FLAP (setting [2]) was 1 nM. For the same compound, the half-maximal inhibitory concentration (IC50) in assay [1] was found to be 5 nM.

Turning to `Nc1cnc(-c2ccc(-c3ccccc3Sc3ncccn3)cc2F)cn1` [Example 213, 5-[3-Fluoro-2′-(pyrimidin-2-ylsulfanyl)biphenyl-4-yl]pyrazin-2-amine hydrochloride], at human FLAP (setting [2]), the Ki was found to be 2 nM. Also, the IC50 in assay [1] was found to be 25 nM.

`Nc1ncc(-c2ccc(-c3ccccc3Sc3ccncn3)cc2F)cn1` [Example 214, 5-[3-Fluoro-2′-(pyrimidin-4-ylsulfanyl)biphenyl-4-yl]pyrimidin-2-amine formate salt]: affinity at human FLAP (setting [2]) was put at a Ki of 12 nM. For the same compound, the half-inhibitory concentration (IC50) in assay [1] was 138 nM.

For `Nc1cnc(-c2ccc(-c3ccccc3Sc3cc(N)ncn3)cc2F)cn1` [Example 215, 6-{[4′-(5-Aminopyrazin-2-yl)-3′-fluorobiphenyl-2-yl]sulfanyl}pyrimidin-4-amine hydrochloride], the inhibition constant (Ki) at human FLAP (setting [2]) came to 2 nM. Moreover, in assay [1], the IC50 came to 12 nM.

Turning to `Nc1cnc(-c2ccc(-c3ccccc3Sc3nccc(N)n3)cc2F)cn1` [Example 216, 2-{[4′-(5-Aminopyrazin-2-yl)-3′-fluorobiphenyl-2-yl]sulfanyl}pyrimidin-4-amine hydrochloride], the inhibition constant Ki on human FLAP (setting [3]) amounted to 2 nM. The 50% inhibitory concentration (IC50) in assay [1] stood at 16 nM.

Compound `Nc1cnc(-c2ccc(-c3ccccc3Sc3ncncc3N)cc2F)cn1` [Example 217, 4-{[4′-(5-Aminopyrazin-2-yl)-3′-fluorobiphenyl-2-yl]sulfanyl}pyrimidin-5-amine hydrochloride] yielded an inhibition constant Ki on human FLAP (setting [2]) of 1 nM. Moreover, the IC50 in assay [1] is 9 nM.

In the case of `Nc1cnc(-c2ccc(-c3ccccc3Sc3cnccn3)cc2F)cn1` [Example 218, 5-[3-Fluoro-2′-(pyrazin-2-ylsulfanyl)biphenyl-4-yl]pyrazin-2-amine hydrochloride], the Ki at human FLAP (setting [3]) is 3 nM. In addition, in assay [1], the half-maximal inhibitory concentration (IC50) is 29 nM.

As to `Nc1cnc(Sc2ccccc2-c2ccc(-c3cnc(N)cn3)c(F)c2)nc1` [Example 219, 2-{[4′-(5-Aminopyrazin-2-yl)-3′-fluorobiphenyl-2-yl]sulfanyl}pyrimidin-5-amine hydrochloride], the Ki on human FLAP (setting [2]) is 5 nM. In addition, in assay [1], the IC50 stood at 31 nM.

`CNS(=O)(=O)Cc1ccccc1-c1ccc(-c2cnc(N)cn2)c(F)c1` [Example 220, 1-[4′-(5-Aminopyrazin-2-yl)-3′-fluorobiphenyl-2-yl]-N-methylmethanesulfonamide formic acid salt] showed a Ki on human FLAP (setting [2]) of 205 nM. The IC50 in assay [1] is 219 nM.

At human FLAP (setting [2]), `Nc1cnc(-c2ccc(-c3ccccc3CS(=O)(=O)NCCO)cc2F)cn1` [Example 221, 1-[4′-(5-Aminopyrazin-2-yl)-3′-fluorobiphenyl-2-yl]-N-(2-hydroxyethyl)methanesulfonamide formic acid salt] had an inhibition constant Ki of 300 nM. In addition, in assay [1], the IC50 was found to be 854 nM.

Regarding `Nc1cnc(-c2ccc(-c3ccccc3CS(=O)(=O)N3CC(O)C3)cc2F)cn1` [Example 222, 1-({[4′-(5-Aminopyrazin-2-yl)-3′-fluorobiphenyl-2-yl]methyl}sulfonyl)azetidin-3-ol formic acid salt], the inhibition constant (Ki) at human FLAP (setting [2]) worked out at 118 nM. Besides, the IC50 in assay [1] turned out to be 638 nM.

On human FLAP (setting [2]), `C[C@@H](CO)NS(=O)(=O)Cc1ccccc1-c1ccc(-c2cnc(N)cn2)c(F)c1` [Example 224, (S)-1-(4′-(5-Aminopyrazin-2-yl)-3′-fluoro-[1,1′-biphenyl]-2-yl)-N-(1-hydroxypropan-2-yl)-methanesulfonamide] gave a Ki of 293 nM. In assay [1], the IC50 was determined as 516 nM.

For the compound `Nc1cnc(-c2ccc(-c3ccccc3CS(=O)(=O)N[C@H]3CC[C@H](O)CC3)cc2F)cn1` [Example 226, 1-[4′-(5-Aminopyrazin-2-yl)-3′-fluorobiphenyl-2-yl]-N-(trans-4-hydroxycyclohexyl)-methanesulfonamide formic acid salt], the inhibitory constant (Ki) on human FLAP (setting [3]) stood at 211 nM. The IC50 in assay [1] was determined as 329 nM.

With `Nc1cnc(-c2ccc(-c3ccccc3CS(N)(=O)=O)cc2F)cn1` [Example 230, 1-[4′-(5-Aminopyrazin-2-yl)-3′-fluorobiphenyl-2-yl]methanesulfonamide hydrochloride], the Ki at human FLAP (setting [2]) was 1200 nM. Moreover, in assay [1], the 50% inhibitory concentration (IC50) turned out to be 5000 nM.

Consider `CCNS(=O)(=O)Cc1ccccc1-c1ccc(-c2cnc(N)cn2)c(F)c1` [Example 231, 1-[4′-(5-Aminopyrazin-2-yl)-3′-fluorobiphenyl-2-yl]-N-ethylmethanesulfonamide formate salt], for which, at human FLAP (setting [3]), the Ki turned out to be 135 nM. The half-maximal inhibitory concentration (IC50) in assay [1] is 564 nM.

On to `CCSCc1ccccc1-c1ccc(-c2cnc(N)cn2)c(F)c1` [Example 234, 5-{2′-[(Ethylsulfanyl)methyl]-3-fluorobiphenyl-4-yl}pyrazin-2-amine formic acid salt], for which, on human FLAP (setting [2]), the inhibition constant Ki amounted to 25 nM. Besides, in assay [1], the IC50 was 238 nM.

Compound `CSCc1ccccc1-c1ccc(-c2cnc(N)cn2)c(F)c1` [Example 235, 5-{3-Fluoro-2′-[(methylsulfanyl)methyl]biphenyl-4-yl}pyrazin-2-amine hydrochloride] came in with an inhibition constant Ki on human FLAP (setting [2]) of 36 nM. Besides, in assay [1], the IC50 came out at 285 nM.

Take `CC(C)SCc1ccccc1-c1ccc(-c2cnc(N)cn2)c(F)c1` [Example 236, 5-(3-Fluoro-2′-{[(1-methylethyl)sulfanyl]methyl}biphenyl-4-yl)pyrazin-2-amine hydrochloride]: the inhibition constant Ki on human FLAP (setting [2]) turned out to be 57 nM. Also, the IC50 in assay [1] was determined as 443 nM.

As for `Nc1cnc(-c2ccc(-c3ccccc3CSc3nccc(N)n3)cc2F)cn1` [Example 237, 2-(((4′-(5-Aminopyrazin-2-yl)-3′-fluoro-[1,1′-biphenyl]-2-yl)methyl)thio)pyrimidin-4-amine hydrochloride], affinity on human FLAP (setting [2]) was put at a Ki of 8 nM. Moreover, the 50% inhibitory concentration (IC50) in assay [1] was found to be 134 nM.

Regarding `Nc1cnc(-c2ccc(-c3ccccc3CSc3cc(N)ncn3)cc2F)cn1` [Example 238, 6-(((4′-(5-Aminopyrazin-2-yl)-3′-fluoro-[1,1′-biphenyl]-2-yl)methyl)thio)pyrimidin-4-amine hydrochloride], the Ki on human FLAP (setting [2]) came to 5 nM. Besides, the half-maximal inhibitory concentration (IC50) in assay [1] was found to be 38 nM.
